Assay results taken from PMC6704710, “Preclinical evaluation of 3D185, a novel potent inhibitor of FGFR1/2/3 and CSF-1R, in FGFR-dependent and macrophage-dominant cancer models” (Journal of Experimental & Clinical Cancer Research : CR, 2019).

Legend:
Assay in all cases: Eurofins kinase panel
Type in all cases: biochemical
Details in all cases: read-out: Inhibition rate (%)
Ret (V804L)(h) = molecular target: T1, Ret (V804L)(h) (Homo sapiens, UniProt P07949, V804L)
T1 construct: purchased Eurofins (KinaseProfiler)
T1 sequence (P07949 29-1114 V804L): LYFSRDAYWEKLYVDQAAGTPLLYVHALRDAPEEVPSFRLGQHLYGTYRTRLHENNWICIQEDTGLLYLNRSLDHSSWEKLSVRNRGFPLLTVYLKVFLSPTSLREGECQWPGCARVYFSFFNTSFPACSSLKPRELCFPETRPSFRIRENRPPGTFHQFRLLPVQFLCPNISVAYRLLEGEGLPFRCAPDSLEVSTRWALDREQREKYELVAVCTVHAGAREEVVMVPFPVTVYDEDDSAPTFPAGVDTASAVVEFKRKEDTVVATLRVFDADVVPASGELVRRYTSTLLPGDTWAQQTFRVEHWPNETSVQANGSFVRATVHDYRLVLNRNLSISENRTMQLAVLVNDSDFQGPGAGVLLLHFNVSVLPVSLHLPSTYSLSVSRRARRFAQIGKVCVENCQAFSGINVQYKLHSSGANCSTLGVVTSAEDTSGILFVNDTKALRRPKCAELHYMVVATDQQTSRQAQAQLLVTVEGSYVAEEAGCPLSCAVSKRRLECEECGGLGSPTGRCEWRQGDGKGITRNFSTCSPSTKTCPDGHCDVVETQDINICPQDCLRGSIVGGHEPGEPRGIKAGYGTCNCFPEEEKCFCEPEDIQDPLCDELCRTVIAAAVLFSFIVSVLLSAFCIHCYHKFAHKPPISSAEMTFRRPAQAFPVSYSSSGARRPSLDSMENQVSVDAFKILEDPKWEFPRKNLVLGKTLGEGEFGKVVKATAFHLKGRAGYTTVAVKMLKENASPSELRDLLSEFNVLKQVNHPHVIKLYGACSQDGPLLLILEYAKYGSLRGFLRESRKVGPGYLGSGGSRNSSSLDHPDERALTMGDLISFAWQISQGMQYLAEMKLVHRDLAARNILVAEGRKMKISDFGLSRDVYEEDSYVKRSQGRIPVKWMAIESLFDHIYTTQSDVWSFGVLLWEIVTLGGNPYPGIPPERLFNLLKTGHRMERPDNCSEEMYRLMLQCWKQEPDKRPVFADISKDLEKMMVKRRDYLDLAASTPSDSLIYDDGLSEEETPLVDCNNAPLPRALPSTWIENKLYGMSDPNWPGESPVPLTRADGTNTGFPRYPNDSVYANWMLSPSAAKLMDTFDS

CDK6/cyclinD3(h) = molecular target: T2, CDK6/cyclinD3(h) (Homo sapiens, UniProt Q00534)
T2 construct: purchased Eurofins (KinaseProfiler)
T2 sequence (Q00534 whole entry): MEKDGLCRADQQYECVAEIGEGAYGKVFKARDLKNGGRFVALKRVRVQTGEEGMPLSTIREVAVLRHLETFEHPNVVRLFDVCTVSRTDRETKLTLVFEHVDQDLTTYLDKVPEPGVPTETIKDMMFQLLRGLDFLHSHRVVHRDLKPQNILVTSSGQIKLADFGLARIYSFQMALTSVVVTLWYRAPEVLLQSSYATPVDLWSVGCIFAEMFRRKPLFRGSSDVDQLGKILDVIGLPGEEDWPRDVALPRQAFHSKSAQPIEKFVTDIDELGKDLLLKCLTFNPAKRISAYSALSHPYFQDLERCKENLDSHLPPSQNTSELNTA
T2 sequence (P30281 whole entry partner): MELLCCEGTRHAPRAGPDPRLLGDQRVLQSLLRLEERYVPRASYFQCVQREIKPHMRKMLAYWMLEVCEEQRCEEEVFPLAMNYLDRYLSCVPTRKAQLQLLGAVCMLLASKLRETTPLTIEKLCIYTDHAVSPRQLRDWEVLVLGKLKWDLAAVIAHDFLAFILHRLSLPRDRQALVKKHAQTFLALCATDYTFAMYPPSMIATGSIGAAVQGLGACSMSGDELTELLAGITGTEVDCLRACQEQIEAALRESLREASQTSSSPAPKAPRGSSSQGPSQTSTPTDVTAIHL

Flt3(D835Y)(h) = molecular target: T3, Flt3(D835Y)(h) (Homo sapiens, UniProt P36888, D835Y)
T3 construct: purchased Eurofins (KinaseProfiler)
T3 sequence (P36888 27-993 D835Y): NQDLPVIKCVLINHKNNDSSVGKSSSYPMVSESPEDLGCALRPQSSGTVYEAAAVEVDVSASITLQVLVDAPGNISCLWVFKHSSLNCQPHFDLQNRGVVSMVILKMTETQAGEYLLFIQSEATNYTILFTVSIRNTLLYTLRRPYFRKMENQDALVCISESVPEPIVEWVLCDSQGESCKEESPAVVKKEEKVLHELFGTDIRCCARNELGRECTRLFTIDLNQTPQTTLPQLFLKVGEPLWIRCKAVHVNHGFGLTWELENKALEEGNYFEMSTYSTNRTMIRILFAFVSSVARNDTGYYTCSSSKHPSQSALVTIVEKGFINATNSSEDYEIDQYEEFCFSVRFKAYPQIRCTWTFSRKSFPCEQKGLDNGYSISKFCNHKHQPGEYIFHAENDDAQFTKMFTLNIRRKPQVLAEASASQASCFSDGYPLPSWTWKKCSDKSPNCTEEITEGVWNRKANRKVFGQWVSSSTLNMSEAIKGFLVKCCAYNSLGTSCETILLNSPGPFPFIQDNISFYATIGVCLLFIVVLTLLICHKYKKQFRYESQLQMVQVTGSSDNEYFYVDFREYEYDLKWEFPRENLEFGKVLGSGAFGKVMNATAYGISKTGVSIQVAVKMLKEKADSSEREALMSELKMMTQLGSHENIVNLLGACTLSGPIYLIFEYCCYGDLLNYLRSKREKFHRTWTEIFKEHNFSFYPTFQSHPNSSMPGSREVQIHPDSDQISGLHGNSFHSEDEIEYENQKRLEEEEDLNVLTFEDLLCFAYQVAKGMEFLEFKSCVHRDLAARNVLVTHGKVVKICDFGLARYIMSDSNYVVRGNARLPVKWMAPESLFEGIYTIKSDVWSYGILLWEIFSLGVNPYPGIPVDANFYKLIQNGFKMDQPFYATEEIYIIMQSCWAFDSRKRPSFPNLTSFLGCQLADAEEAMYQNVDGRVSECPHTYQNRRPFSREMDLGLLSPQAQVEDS

ROCK-II(h) = molecular target: T4, ROCK-II(h) (Homo sapiens, UniProt O75116)
T4 construct: purchased Eurofins (KinaseProfiler)
T4 sequence (O75116 whole entry): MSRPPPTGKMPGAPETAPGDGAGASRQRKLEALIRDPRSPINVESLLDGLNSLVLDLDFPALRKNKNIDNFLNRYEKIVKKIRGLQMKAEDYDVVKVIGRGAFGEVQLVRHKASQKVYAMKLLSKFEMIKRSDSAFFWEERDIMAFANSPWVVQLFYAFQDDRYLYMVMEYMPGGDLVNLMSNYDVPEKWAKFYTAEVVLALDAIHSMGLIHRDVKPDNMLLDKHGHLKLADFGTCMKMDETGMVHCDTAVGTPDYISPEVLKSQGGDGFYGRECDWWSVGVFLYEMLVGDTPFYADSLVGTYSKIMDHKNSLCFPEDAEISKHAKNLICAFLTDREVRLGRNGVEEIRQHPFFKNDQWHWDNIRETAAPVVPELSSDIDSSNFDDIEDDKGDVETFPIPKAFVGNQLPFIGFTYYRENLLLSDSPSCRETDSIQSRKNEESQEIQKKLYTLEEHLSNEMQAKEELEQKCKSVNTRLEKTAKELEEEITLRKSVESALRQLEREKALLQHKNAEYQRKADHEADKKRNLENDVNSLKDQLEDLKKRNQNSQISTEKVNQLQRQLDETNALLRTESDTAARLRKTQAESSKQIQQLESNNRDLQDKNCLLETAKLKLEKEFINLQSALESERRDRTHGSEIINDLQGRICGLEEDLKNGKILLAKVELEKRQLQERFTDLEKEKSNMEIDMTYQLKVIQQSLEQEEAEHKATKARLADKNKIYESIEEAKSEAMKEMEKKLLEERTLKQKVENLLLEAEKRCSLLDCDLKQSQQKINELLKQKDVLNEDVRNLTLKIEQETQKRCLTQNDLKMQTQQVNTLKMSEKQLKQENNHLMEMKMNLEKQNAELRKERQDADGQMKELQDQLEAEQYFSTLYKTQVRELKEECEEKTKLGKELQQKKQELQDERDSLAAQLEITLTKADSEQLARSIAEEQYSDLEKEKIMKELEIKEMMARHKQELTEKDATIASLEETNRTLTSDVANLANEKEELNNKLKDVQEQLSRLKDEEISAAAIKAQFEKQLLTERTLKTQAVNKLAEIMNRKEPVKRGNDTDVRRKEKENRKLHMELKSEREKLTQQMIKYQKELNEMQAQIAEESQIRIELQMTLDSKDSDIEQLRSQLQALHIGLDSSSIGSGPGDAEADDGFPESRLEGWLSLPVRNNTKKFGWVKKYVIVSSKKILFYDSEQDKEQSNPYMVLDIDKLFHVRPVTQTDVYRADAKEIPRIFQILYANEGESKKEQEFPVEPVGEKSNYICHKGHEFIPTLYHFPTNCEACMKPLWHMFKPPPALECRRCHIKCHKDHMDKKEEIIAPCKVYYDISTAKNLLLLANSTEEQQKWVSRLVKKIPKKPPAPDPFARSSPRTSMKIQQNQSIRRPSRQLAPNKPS

Lck(h) activated = molecular target: T5, Lck(h) activated (Homo sapiens, UniProt P06239)
T5 construct: purchased Eurofins (KinaseProfiler)
T5 sequence (P06239 whole entry): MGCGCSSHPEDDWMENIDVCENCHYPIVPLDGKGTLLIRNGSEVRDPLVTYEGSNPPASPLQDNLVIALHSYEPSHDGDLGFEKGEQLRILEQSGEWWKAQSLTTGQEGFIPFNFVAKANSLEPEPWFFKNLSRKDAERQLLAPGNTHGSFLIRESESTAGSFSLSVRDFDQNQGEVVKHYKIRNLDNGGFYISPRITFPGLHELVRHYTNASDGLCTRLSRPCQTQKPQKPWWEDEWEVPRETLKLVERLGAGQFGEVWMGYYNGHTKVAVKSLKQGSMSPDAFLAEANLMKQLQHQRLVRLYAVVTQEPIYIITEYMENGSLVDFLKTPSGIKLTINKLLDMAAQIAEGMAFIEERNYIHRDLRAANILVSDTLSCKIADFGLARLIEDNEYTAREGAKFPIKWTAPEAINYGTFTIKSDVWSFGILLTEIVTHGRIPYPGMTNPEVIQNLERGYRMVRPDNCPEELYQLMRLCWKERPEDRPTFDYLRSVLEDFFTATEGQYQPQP

Syk(h) = molecular target: T6, Syk(h) (Homo sapiens, UniProt P43405)
T6 construct: purchased Eurofins (KinaseProfiler)

EphB2(h) = molecular target: T7, EphB2(h) (Homo sapiens, UniProt P29323)
T7 construct: purchased Eurofins (KinaseProfiler)
T7 sequence (P29323 19-1055): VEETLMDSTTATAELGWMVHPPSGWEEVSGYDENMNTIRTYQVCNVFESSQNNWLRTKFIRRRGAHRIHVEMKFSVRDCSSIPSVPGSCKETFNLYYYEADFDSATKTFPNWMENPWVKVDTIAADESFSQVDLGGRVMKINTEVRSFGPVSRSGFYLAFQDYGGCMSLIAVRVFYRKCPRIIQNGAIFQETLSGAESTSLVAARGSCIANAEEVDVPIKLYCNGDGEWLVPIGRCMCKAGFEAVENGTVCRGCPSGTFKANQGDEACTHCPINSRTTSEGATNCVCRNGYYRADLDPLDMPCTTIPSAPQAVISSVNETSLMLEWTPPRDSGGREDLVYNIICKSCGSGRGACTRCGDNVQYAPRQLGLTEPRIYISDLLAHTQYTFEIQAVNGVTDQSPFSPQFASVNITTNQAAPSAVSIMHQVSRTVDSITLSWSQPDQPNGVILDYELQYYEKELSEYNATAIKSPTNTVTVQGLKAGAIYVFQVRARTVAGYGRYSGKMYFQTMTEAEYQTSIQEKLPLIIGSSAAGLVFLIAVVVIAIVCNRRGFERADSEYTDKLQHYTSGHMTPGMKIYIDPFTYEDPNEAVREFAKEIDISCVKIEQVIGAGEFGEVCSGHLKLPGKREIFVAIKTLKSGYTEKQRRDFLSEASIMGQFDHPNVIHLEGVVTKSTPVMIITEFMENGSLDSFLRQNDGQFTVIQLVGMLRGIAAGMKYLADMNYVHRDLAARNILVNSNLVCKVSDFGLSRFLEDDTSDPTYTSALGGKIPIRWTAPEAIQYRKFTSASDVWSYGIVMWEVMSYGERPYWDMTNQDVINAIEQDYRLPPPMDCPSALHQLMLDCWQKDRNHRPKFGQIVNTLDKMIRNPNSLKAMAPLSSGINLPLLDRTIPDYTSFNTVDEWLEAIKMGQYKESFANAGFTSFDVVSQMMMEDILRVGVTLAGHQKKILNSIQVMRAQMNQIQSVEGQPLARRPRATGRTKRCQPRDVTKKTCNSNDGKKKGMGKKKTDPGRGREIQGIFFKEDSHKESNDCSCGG

COc1cc(OC)c(Cl)c(-c2ccc3c(NC(=O)c4ccc(N5CCNC(C)(C)C5)cc4)n[nH]c3n2)c1Cl [3D185]
inhibition at 0.01 µM (Ret (V804L)(h); 10 nM): -13%
inhibition at 0.1 µM (Ret (V804L)(h); 100 nM): -15%
inhibition at 1 µM (Ret (V804L)(h); 1000 nM): 20%
inhibition at 0.01 µM (CDK6/cyclinD3(h); 10 nM): 9%
inhibition at 0.1 µM (CDK6/cyclinD3(h); 100 nM): 15%
inhibition at 1 µM (CDK6/cyclinD3(h); 1000 nM): 16%
inhibition at 0.01 µM (Flt3(D835Y)(h); 10 nM): -1%
inhibition at 0.1 µM (Flt3(D835Y)(h); 100 nM): -6%
inhibition at 1 µM (Flt3(D835Y)(h); 1000 nM): 5%
inhibition at 0.01 µM (ROCK-II(h); 10 nM): 0%
inhibition at 0.1 µM (ROCK-II(h); 100 nM): -1%
inhibition at 1 µM (ROCK-II(h); 1000 nM): -1%
inhibition at 0.01 µM (Lck(h) activated; 10 nM): 16%
inhibition at 0.1 µM (Lck(h) activated; 100 nM): 59%
inhibition at 1 µM (Lck(h) activated; 1000 nM): 92%
inhibition at 0.01 µM (Syk(h); 10 nM): -3%
inhibition at 0.1 µM (Syk(h); 100 nM): -5%
inhibition at 1 µM (Syk(h); 1000 nM): 20%
inhibition at 0.01 µM (EphB2(h); 10 nM): 12%
inhibition at 0.1 µM (EphB2(h); 100 nM): 6%
inhibition at 1 µM (EphB2(h); 1000 nM): 15%
